Test results published in US20250387462A1, “LIPID NANOPARTICLES FOR […] OF NUCLEIC ACIDS AND VACCINE FOR THE PREVENTION OF TU[…] OTHER MYCOBACTERIAL INFECTIONS” (priority 2024, published 2025).

How the values were obtained:
[1] = Apparent solubility of phosphatidylserine salts in ethanol (shake flask); type: physicochemical; conditions: 21 °C, organic solvent or mixture, thermodynamic from solid, 100% ethanol, room temperature, average±SD (N=3)
Procedure: Apparent solubilities of phosphatidylserine salts in ethanol were determined by shake flask technique. Sodium and ammonium salts of phosphatidylserines in the powder form were obtained from Avanti Polar Lipids (Alabama, USA). Aliquots of phosphatidylserine salt powder were placed in 12×75 borosilicate glass tubes in triplicate. Three mL of 200 proof ethanol (catalog number E-7023, MilliporeSigma, USA) were added, the tubes were closed with polyethylene snap caps, agitated using vortex mixer for 10-15 s to obtain uniform suspensions, and placed in a horizontal position on a rocking platform at room temperature (20-22° C.) overnight. The ambient temperature at the end of incubation was 20.4-20.9° C. After 24 hours incubation, the suspensions were visually checked for the presence of a solid phase, allowed to settle under gravity, and the supernatant solutions were passed through a 0.2-μm PTFE syringe membrane filters. The first 0.5 ml of the filtrate was discarded, the next 1 ml was collected, and phosphatidylserine in the filtrates was quantified by phospholipid phosphate assay as follows: 20 μL aliquots of the filtrate were taken in triplicate into glass tubes, ethanol was evaporated in a stream of argon at 70° C., and the residue was digested in a mixture of 60 μL concentrated sulfuric acid and 20 μL 30% hydrogen peroxide for 10 min at 180-190° C. The digested samples were diluted with 1 mL of deionized water, 20 μL of 10% sodium sulfite was added to destroy any residual peroxide, and the samples were incubated on a boiling water bath for 15 min to hydrolyze any condensed phosphate species. The samples were chilled down to room temperature, mixed with 0.2 mL of 2% (w/w) ammonium molybdate solution and 20 μL of 10% (w/w) ascorbic acid solution, incubated on a boiling water bath for 10 min, and chilled down in a water bath at room temperature. The phosphate concentration was determined from the optical density of the formed blue phosphomolybdic acid at 825 nm using five-point standard curve from concurrently run standards prepared from the NIST-traceable commercial phosphate standard solution diluted to cover the range of 0-2 mM phosphate (coefficient of determination R^2>0.9999). Solubility of phosphatidylserine salts was expressed in molarity units of phosphatidylserine (Table 28). The data are average±SD (N=3).

[2] = tested on: MutuDC1940 cells; experiment: mCherry mRNA transfection efficiency of LNPs in murine dendritic cells (flow cytometry); type: cell-based; conditions: lipid in LNPs, even in the presence of DPPS targeting lipid
Procedure: • 1. MutuDC1940 cells (Applied Biological Materials, T0528) were grown according to supplier's instructions in T75 flasks. They were plated at 180,000 cells/well into 24-well plate one day prior to transfection. • 2. LNPs were added in triplicate to each well at the desired mRNA concentration (e.g. 1 μg/mL) in 1 mL media and after 24 h the cells were washed once with DPBS (VWR 02-0119-1000). • 3. 0.2 mL of DPBS (plus 5 mM EDTA, pH 7.4) was then added to facilitate detachment. • 4. The cells were placed at 37° C. for 3 min, until detached. • 5. 0.5 ml DPBS added to each well and the liquid transferred to a flow cytometry tube (Falcon 5 mL #352054). • 6. The tube was centrifuged at 1100 rpm for 3-5 min and the liquid poured off. • 7. 100 μL of Zombie Violet (Biolegend) (diluted 1:500 in PBS) was added to each tube. • 8. The tubes were gently tapped to resuspend cells and placed in the dark for 15 min at RT. • 9. […]
Cells suspensions were analyzed by an Attune NXT flow cytometer using the VL1 and YL2 for live/dead and mCherry fluorescence signals respectively. […]
The aim of this study was to explore the effect of different KC2 and KC3 ICLs on transfection efficiency in murine dendritic cells. […] Two other variants evaluated have monounsaturated alkyl chains with KC3-OA being 18 carbons in length and KC3C17(8:1) having 17 carbons. […]

[3] = In vivo metabolism of ionizable lipid after intramuscular injection
Excerpt: We have observed that in vivo metabolism of the KC3-OA lipids after intramuscular injection is slow. This is not unexpected because there are no ester linkages in the lipid tail that would allow for the release of the lipid head group and subsequent clearance from the body. We have identified multiple biodegradable ICLs that differ in the length of the lipid tail, the location and orientation of the ester linkage, and the inclusion of a double bond in the lipid tail.

[4] = tested on: Mtb-specific CD4 and CD8 T cells; experiment: Mtb antigen-specific splenic CD4 and CD8 T cell responses after mRNA-LNP vaccination of CB6F1 or B6C3F1 mice (peptide pool stimulation, intracellular cytokines); type: in vivo; conditions: 1 ug or 0.2 ug i.m., boost 5 weeks, 8 days later, lipid in DPPS-targeted LNP

Structure (SMILES) | solubility at 24 h [1] [mM] | also measured
CCCCCCCCCCCCCCCC(=O)OC[C@H](COP(=O)(O)OC[C@H](N)C(=O)O)OC(=O)CCCCCCCCCCCCCCC.N [DPPS ammonium] | 0.865 ± 0.06 | –
CCCCCCCCCCCCCCCC(=O)OC[C@H](COP(=O)(O)OC[C@H](N)C(=O)[O-])OC(=O)CCCCCCCCCCCCCCC.[Na+] [DPPS sodium] | 0.201 ± 0.004 | –
CCCCCCCCCCCCCCCCCC(=O)OC[C@H](COP(=O)(O)OC[C@H](N)C(=O)O)OC(=O)CCCCCCCCCCCCCCCCC.N [DSPS ammonium] | 0.034 ± 0.004 | –
CCCCCCCCCCCCCCCCCC(=O)OC[C@H](COP(=O)(O)OC[C@H](N)C(=O)[O-])OC(=O)CCCCCCCCCCCCCCCCC.[Na+] [DSPS sodium] | 0.111 ± 0.009 | –
CCCCCCCCCCCCCCCCCC1(CCCCCCCCCCCCCCCCC)OC[C@H](CCCN(C)C)O1 [KC3-17, (S)-3-(2,2-diheptadecyl-1,3-dioxolan-4-yl)-N,N-dimethylpropan-1-amine] | – | transfection activity in murine dendritic cells (in words) [2]: completely inactive
CCCCCCCC/C=C\CCCCCCCCC1(CCCCCCCC/C=C\CCCCCCCC)OC[C@H](CCCN(C)C)O1 [KC3-OA, 3-((S)-2,2-di((Z)-octadec-9-en-1-yl)-1,3-dioxolan-4-yl)-N,N-dimethylpropan-1-amine] | – | in vivo metabolism after intramuscular injection [3]: slow
CC(C)CCCC(C)CCCC(C)CCOC(=O)CCCCCCCC1(CCCCCCCC(=O)OCCC(C)CCCC(C)CCCC(C)C)OCC(CCCN(C)C)O1 (stereo not shown) [KC3-X1-PH5] | – | CD4 and CD8 T cell magnitude compared to KC3-OA [4]: statistically performed better than KC3-OA
